Results from patent US20230365488A1, “TRUXILLIC ACID MONOESTER-DERIVATIVES AS SELECTIVE FABP5 INHIBITORS AND PHARMACEUTICAL COMPOSITIONS AND USES THEREOF” (The Research Foundation for The State University of New York, priority 2020, published 2023).

How the values were obtained:
FABP3 = FABP3 (Homo sapiens (Human), UniProt P05413); assay: FABP3 fluorescent probe displacement binding assay; settings: average ± S.E. of at least three independent experiments
FABP7 = FABP7 (Homo sapiens (Human), UniProt O15540); assay: FABP7 fluorescent probe displacement binding assay; settings: average ± S.E. of at least three independent experiments
FABP7, sequence (O15540 whole entry): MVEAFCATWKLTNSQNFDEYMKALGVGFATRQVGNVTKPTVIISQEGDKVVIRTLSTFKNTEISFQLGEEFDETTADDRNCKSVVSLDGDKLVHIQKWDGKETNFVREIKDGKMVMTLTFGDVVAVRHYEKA

PC3 cells = assay: MTT cytotoxicity and taxane combination (CI) analysis, PC3 (Example 6); assay type: cell-based, human; settings: for IC50: Homo sapiens, PC-3, MTT, 72-hour incubation, single agent; for CI value / Fa value / Relationship: PC3, 1y 7.5 μM or 1w 1.0 μM; for cytotoxicity of combination with docetaxel or cabazitaxel versus each drug administered independently: PC3 cells
DU-145 cells = assay: MTT cytotoxicity and taxane combination (CI) analysis, DU-145 (Example 6); assay type: cell-based, human; settings: for CI value / Fa value / Relationship: 1y 7.5 μM or 1w 1.0 μM
22Rv1 cells = assay: MTT cytotoxicity and taxane combination (CI) analysis, 22Rv1 (Example 6); assay type: cell-based, human; settings: for CI value / Fa value / Relationship / IC50: 22Rv1; for CI value / Fa value / Relationship: 1y 7.5 μM or 1w 1.0 μM; for cytotoxicity of combination with docetaxel or cabazitaxel versus each drug administered independently: 22Rv1 cells; for IC50: Homo sapiens, MTT, 72-hour incubation, single agent
[1] = MTT cytotoxicity, RWPE-1 (Example 6); assay type: cell-based; settings: human, RWPE-1 cells (normal prostate cell line), 72-hour incubation
[2] = MTT cytotoxicity, WI-38 (Example 6); assay type: cell-based; settings: human, WI-38 cells (normal lung cell line), 72-hour incubation
[3] = system: PC3 cells implanted subcutaneously; assay: Subcutaneous PC3 tumor growth in nude mice; assay type: in vivo, male BALB/c nude mice; settings: for tumor growth: 20 mg/kg, ip, once daily, from day 15, versus vehicle
[4] = combination with cabazitaxel 0.03 nM
[5] = combination with cabazitaxel 0.3 nM
[6] = combination with cabazitaxel 3.0 nM
[7] = combination with docetaxel 0.03 nM
[8] = combination with docetaxel 0.3 nM
[9] = combination with docetaxel 3.0 nM
[10] = DU-145, combination with cabazitaxel 0.03 nM
[11] = DU-145, combination with cabazitaxel 0.3 nM
[12] = DU-145, combination with cabazitaxel 3.0 nM
[13] = DU-145, combination with docetaxel 0.03 nM
[14] = DU-145, combination with docetaxel 0.3 nM
[15] = DU-145, combination with docetaxel 3.0 nM

FABP3, sequence (P05413 whole entry): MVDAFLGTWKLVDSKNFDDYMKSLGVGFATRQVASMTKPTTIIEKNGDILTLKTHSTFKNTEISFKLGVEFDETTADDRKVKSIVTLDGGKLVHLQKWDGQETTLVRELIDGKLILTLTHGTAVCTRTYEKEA

COc1ccccc1[C@H]1[C@H](C(=O)O)[C@H](c2ccccc2OC)[C@H]1C(=O)OCC1c2ccccc2-c2ccccc21 (racemic) [Compound 1w]
Ki (FABP3): 25.3 ± 4.57 µM
Ki (FABP7): 4.26 ± 0.41 µM
IC50 (PC3 cells): 6.3 µM
CI value (PC3 cells; [4]): 0.899
Fa value (PC3 cells; [4]): 0.379
Relationship (PC3 cells; [4]): synergistic
CI value (PC3 cells; [5]): 0.942
Fa value (PC3 cells; [5]): 0.420
Relationship (PC3 cells; [5]): synergistic
CI value (PC3 cells; [6]): 0.373
Fa value (PC3 cells; [6]): 0.853
Relationship (PC3 cells; [6]): synergistic
CI value (PC3 cells; [7]): 0.710
Fa value (PC3 cells; [7]): 0.402
Relationship (PC3 cells; [7]): synergistic
CI value (PC3 cells; [8]): 0.889
Fa value (PC3 cells; [8]): 0.432
Relationship (PC3 cells; [8]): synergistic
CI value (PC3 cells; [9]): 0.394
Fa value (PC3 cells; [9]): 0.700
Relationship (PC3 cells; [9]): synergistic
cytotoxicity of combination with docetaxel or cabazitaxel versus each drug administered independently (PC3 cells): greater cytotoxicity
CI value (DU-145 cells; [10]): 0.449
Fa value (DU-145 cells; [10]): 0.464
Relationship (DU-145 cells; [10]): synergistic
CI value (DU-145 cells; [11]): 0.300
Fa value (DU-145 cells; [11]): 0.716
Relationship (DU-145 cells; [11]): synergistic
CI value (DU-145 cells; [12]): 0.194
Fa value (DU-145 cells; [12]): 0.882
Relationship (DU-145 cells; [12]): synergistic
CI value (DU-145 cells; [13]): 4.473
Fa value (DU-145 cells; [13]): 0.516
CI value (DU-145 cells; [14]): 2.697
Fa value (DU-145 cells; [14]): 0.676
CI value (DU-145 cells; [15]): 0.445
Fa value (DU-145 cells; [15]): 0.935
Relationship (DU-145 cells; [15]): synergistic
cytotoxicity of combination with docetaxel or cabazitaxel versus each drug administered independently (DU-145 cells; DU-145 cells): greater cytotoxicity
IC50 (DU-145 cells; Homo sapiens, DU-145, MTT, 72-hour incubation, single agent): 3.3 µM
CI value (22Rv1 cells; [4]): 0.731
Fa value (22Rv1 cells; [4]): 0.577
Relationship (22Rv1 cells; [4]): synergistic
CI value (22Rv1 cells; [5]): 0.549
Fa value (22Rv1 cells; [5]): 0.728
Relationship (22Rv1 cells; [5]): synergistic
CI value (22Rv1 cells; [6]): 0.659
Fa value (22Rv1 cells; [6]): 0.823
Relationship (22Rv1 cells; [6]): synergistic
CI value (22Rv1 cells; [7]): 1.673
Fa value (22Rv1 cells; [7]): 0.457
CI value (22Rv1 cells; [8]): 0.373
Fa value (22Rv1 cells; [8]): 0.744
Relationship (22Rv1 cells; [8]): synergistic
CI value (22Rv1 cells; [9]): 0.267
Fa value (22Rv1 cells; [9]): 0.905
Relationship (22Rv1 cells; [9]): synergistic
cytotoxicity of combination with docetaxel or cabazitaxel versus each drug administered independently (22Rv1 cells): greater cytotoxicity
IC50 (22Rv1 cells): 3.1 µM
IC50 at 72 h [1]: 20.6 µM
IC50 at 72 h [2]: 29.6 µM
tumor growth, coadministration with docetaxel ([3]; 20 mg/kg ip daily in combination with docetaxel 5 mg/kg weekly, comparable in magnitude to the 10 mg/kg docetaxel dose): greater inhibition of tumor growth than treatment with each compound alone
tumor growth [3]: significantly reduced tumor growth

COc1ccccc1[C@H]1[C@H](C(=O)O)[C@H](c2ccccc2OC)[C@H]1C(=O)Oc1cccc2ccccc12 (racemic) [Compound 1y]
Ki (FABP3): 0.69 ± 0.17 µM
Ki (FABP7): 0.67 ± 0.04 µM
IC50 (PC3 cells): 11.4 µM
CI value (PC3 cells; [4]): 0.0001
Fa value (PC3 cells; [4]): 0.998
Relationship (PC3 cells; [4]): synergistic
CI value (PC3 cells; [5]): 0.0001
Fa value (PC3 cells; [5]): 0.999
Relationship (PC3 cells; [5]): synergistic
CI value (PC3 cells; [6]): 0.0001
Fa value (PC3 cells; [6]): 0.999
Relationship (PC3 cells; [6]): synergistic
CI value (PC3 cells; [7]): 0.897
Fa value (PC3 cells; [7]): 0.786
Relationship (PC3 cells; [7]): synergistic
CI value (PC3 cells; [8]): 0.009
Fa value (PC3 cells; [8]): 0.950
Relationship (PC3 cells; [8]): synergistic
CI value (PC3 cells; [9]): 0.160
Fa value (PC3 cells; [9]): 0.992
Relationship (PC3 cells; [9]): synergistic
cytotoxicity of combination with docetaxel or cabazitaxel versus each drug administered independently (PC3 cells): greater cytotoxicity
CI value (22Rv1 cells; [4]): 0.707
Fa value (22Rv1 cells; [4]): 0.777
Relationship (22Rv1 cells; [4]): synergistic
CI value (22Rv1 cells; [5]): 0.396
Fa value (22Rv1 cells; [5]): 0.899
Relationship (22Rv1 cells; [5]): synergistic
CI value (22Rv1 cells; [6]): 0.003
Fa value (22Rv1 cells; [6]): 0.998
Relationship (22Rv1 cells; [6]): synergistic
CI value (22Rv1 cells; [7]): 3.846
Fa value (22Rv1 cells; [7]): 0.795
CI value (22Rv1 cells; [8]): 0.003
Fa value (22Rv1 cells; [8]): 0.904
Relationship (22Rv1 cells; [8]): synergistic
CI value (22Rv1 cells; [9]): 0.005
Fa value (22Rv1 cells; [9]): 0.999
Relationship (22Rv1 cells; [9]): synergistic
cytotoxicity of combination with docetaxel or cabazitaxel versus each drug administered independently (22Rv1 cells): greater cytotoxicity
IC50 (22Rv1 cells): 10.1 µM
IC50 at 72 h [1]: 26 µM
IC50 at 72 h [2]: 29.4 µM
tumor growth [3]: significantly reduced tumor growth
